Experimental data taken from US12187723B2 (BRISTOL-MYERS SQUIBB COMPANY, priority 2019, dated 2025).

Legend:
human TLR9 = target: T1, human TLR9 (Homo sapiens, UniProt Q9NR96); assay: TLR9 inhibition reporter assay (HEK-Blue SEAP); type: cell-based; settings: HEK-Blue cells overexpressing human TLR9, ODN2006 5 nM, 22 hour incubation
T1 construct: host or cells: HEK-Blue cells
T1 sequence (Q9NR96 26-1032): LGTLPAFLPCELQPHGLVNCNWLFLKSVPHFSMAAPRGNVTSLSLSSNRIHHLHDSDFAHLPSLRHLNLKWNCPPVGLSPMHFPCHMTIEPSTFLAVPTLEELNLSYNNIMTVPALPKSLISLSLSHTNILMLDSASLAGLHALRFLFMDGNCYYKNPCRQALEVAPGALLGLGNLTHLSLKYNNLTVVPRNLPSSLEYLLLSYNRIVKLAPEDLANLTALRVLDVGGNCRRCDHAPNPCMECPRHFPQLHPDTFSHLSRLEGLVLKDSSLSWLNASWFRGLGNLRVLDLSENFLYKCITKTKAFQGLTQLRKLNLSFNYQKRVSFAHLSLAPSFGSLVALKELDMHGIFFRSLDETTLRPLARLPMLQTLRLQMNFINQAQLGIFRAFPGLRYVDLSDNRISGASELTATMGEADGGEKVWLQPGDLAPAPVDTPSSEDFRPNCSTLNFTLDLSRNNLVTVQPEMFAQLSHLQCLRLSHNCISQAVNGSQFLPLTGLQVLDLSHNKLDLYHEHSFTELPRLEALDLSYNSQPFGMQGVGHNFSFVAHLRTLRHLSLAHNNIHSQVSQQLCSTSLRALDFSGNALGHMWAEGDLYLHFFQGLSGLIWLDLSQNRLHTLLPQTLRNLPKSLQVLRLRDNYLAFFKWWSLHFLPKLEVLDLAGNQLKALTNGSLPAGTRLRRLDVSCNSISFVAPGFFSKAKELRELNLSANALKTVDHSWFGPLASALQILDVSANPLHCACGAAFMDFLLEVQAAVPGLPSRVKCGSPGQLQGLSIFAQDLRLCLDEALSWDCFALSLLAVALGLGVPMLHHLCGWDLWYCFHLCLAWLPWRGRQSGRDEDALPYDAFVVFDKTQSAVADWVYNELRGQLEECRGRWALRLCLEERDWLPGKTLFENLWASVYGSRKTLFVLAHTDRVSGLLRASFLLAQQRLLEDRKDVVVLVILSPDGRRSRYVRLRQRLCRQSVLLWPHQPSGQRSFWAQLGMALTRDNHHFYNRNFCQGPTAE
Outline: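 HEK-Blue cells overexpressing human TLR7, TLR8 or TLR9 carry a SEAP reporter driven by NF-κB/AP-1 sites. Compounds (0.05 nM–50 μM) were preincubated 30 min at room temperature, then cells were stimulated with gardiquimod 7.5 μM (TLR7), R848 15.9 μM (TLR8) or ODN2006 5 nM (TLR9) for 22 h at 37 °C.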

human TLR7 = target: T2, human TLR7 (Homo sapiens, UniProt Q9NYK1); assay: TLR7 inhibition reporter assay (HEK-Blue SEAP); type: cell-based; settings: HEK-Blue cells overexpressing human TLR7, gardiquimod 7.5 μM, 22 hour incubation
T2 construct: host or cells: HEK-Blue cells
T2 sequence (Q9NYK1 27-1049): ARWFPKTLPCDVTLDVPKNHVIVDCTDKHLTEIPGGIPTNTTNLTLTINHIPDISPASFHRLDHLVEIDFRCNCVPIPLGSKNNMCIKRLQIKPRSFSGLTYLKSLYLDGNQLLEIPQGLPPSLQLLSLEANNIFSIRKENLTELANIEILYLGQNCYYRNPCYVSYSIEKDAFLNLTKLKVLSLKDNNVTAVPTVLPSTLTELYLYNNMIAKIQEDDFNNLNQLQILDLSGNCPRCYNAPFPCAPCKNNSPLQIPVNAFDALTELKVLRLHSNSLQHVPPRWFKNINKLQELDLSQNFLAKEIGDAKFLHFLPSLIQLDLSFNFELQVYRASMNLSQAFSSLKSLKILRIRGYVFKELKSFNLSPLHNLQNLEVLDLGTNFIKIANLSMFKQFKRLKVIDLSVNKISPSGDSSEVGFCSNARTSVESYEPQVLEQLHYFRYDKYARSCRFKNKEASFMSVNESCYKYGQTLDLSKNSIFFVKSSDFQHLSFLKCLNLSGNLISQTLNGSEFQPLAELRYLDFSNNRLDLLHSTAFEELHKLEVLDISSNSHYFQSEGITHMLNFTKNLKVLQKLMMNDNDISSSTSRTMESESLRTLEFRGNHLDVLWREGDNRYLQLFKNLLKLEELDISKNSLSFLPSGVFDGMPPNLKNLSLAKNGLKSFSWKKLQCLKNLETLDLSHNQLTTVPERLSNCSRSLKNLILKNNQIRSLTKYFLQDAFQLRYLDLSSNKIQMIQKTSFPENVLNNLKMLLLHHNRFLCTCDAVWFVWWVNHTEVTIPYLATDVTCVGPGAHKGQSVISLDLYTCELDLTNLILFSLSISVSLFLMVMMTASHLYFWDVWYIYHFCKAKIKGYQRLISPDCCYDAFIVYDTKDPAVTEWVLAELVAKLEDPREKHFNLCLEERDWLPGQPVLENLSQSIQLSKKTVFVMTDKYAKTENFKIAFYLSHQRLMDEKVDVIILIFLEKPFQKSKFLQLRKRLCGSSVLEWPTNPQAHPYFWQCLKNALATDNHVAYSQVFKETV
Outline: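 SEAP readout via HEK-Blue Detection medium after 22 h at 37 °C, 5% CO2 defines inhibition, normalized between agonist-plus-DMSO wells and a reference inhibitor. Compound dose range 0.05 nM–50 μM; TLR7 cells at 15,000/well (gardiquimod), TLR8 at 20,000/well (R848).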

SMILES | IC50 (human TLR9) | IC50 (human TLR7)
CCCN1CCC(n2c(=O)[nH]c3cc(-c4cc(OC)c5ncnn5c4)ccc32)CC1 [Example 76, 5-(8-methoxy-[1,2,4]triazolo[1,5-a]pyridin-6-yl)-1-(1-propylpiperidin-4-yl)-1,3-dihydro-2H-benzo[d]imidazol-2-one] | 1.71 µM | 1.48 µM
COc1cc(-c2ccc3c(c2)[nH]c(=O)n3C2CCN(C(C)C)CC2)cn2ncnc12 [Example 77, 1-(1-isopropylpiperidin-4-yl)-5-(8-methoxy-[1,2,4]triazolo[1,5-a]pyridin-6-yl)-1,3-dihydro-2H-benzo[d]imidazol-2-one] | 0.417 µM | 1.53 µM
COc1cc(-c2ccc3c(c2)[nH]c(=O)n3C2CCN(CC3CCOCC3)CC2)cn2ncnc12 [Example 78, 5-(8-methoxy-[1,2,4]triazolo[1,5-a]pyridin-6-yl)-1-(1-((tetrahydro-2H-pyran-4-yl)methyl)piperidin-4-yl)-1,3-dihydro-2H-benzo[d]imidazol-2-one] | 2.85 µM | 1.12 µM
COc1cc(-c2ccc3c(c2)[nH]c(=O)n3C2CCN(CC3CC3)CC2)cn2ncnc12 [Example 79, 1-(1-(cyclopropylmethyl)piperidin-4-yl)-5-(8-methoxy-[1,2,4]triazolo[1,5-a]pyridin-6-yl)-1,3-dihydro-2H-benzo[d]imidazol-2-one] | 3.9 µM | > 3.13 µM
COc1cc(-c2ccc3c(c2)[nH]c(=O)n3C2CCN(C3COC3)CC2)cn2ncnc12 [Example 80, 5-(8-methoxy-[1,2,4]triazolo[1,5-a]pyridin-6-yl)-1-(1-(oxetan-3-yl)piperidin-4-yl)-1,3-dihydro-2H-benzo[d]imidazol-2-one] | 39.6 µM | > 3.13 µM
COc1cc(-c2ccc3c(c2)[nH]c(=O)n3C2CCN(C3CCOC3)CC2)cn2ncnc12 (stereo not shown) [Example 81, 5-(8-methoxy-[1,2,4]triazolo[1,5-a]pyridin-6-yl)-1-(1-(tetrahydrofuran-3-yl)piperidin-4-yl)-1,3-dihydro-2H-benzo[d]imidazol-2-one] | 3.88 µM | 2.64 µM
COc1cc(-c2ccc3c(c2)[nH]c(=O)n3C2CCN(CC3CCOC3)CC2)cn2ncnc12 (stereo not shown) [Example 82, 5-(8-methoxy-[1,2,4]triazolo[1,5-a]pyridin-6-yl)-1-(1-((tetrahydrofuran-3-yl)methyl)piperidin-4-yl)-1,3-dihydro-2H-benzo[d]imidazol-2-one] | 4.77 µM | 1.3 µM
COc1cc(-c2ccc3c(c2)[nH]c(=O)n3C2CCN(C3CCC3)CC2)cn2ncnc12 [Example 83, 1-(1-cyclobutylpiperidin-4-yl)-5-(8-methoxy-[1,2,4]triazolo[1,5-a]pyridin-6-yl)-1,3-dihydro-2H-benzo[d]imidazol-2-one] | 5.37 µM | 2.48 µM
COc1cc(-c2cc3[nH]c(=O)n([C@H]4CC[C@@H](N(C)C(C)C)CC4)c3cc2C)cn2ncnc12 [Example 84, 1-((1s,4s)-4-(isopropyl(methyl)amino)cyclohexyl)-5-(8-methoxy-[1,2,4]triazolo[1,5-a]pyridin-6-yl)-6-methyl-1,3-dihydro-2H-benzo[d]imidazol-2-one] | 4.78 µM | 0.016 µM
COc1cc(-c2cc3[nH]c(=O)n([C@H]4CC[C@@H](N(C)C5CCOCC5)CC4)c3cc2C)cn2ncnc12 [Example 85, 5-(8-methoxy-[1,2,4]triazolo[1,5-a]pyridin-6-yl)-6-methyl-1-((1s,4s)-4-(methyl(tetrahydro-2H-pyran-4-yl)amino)cyclohexyl)-1,3-dihydro-2H-benzo[d]imidazol-2-one] | 7.94 µM | 0.0214 µM
COc1cc(-c2cc3[nH]c(=O)n(C4CCN(CC(=O)N(C)C)CC4)c3cc2C)cn2ncnc12 [Example 86, 2-(4-(5-(8-methoxy-[1,2,4]triazolo[1,5-a]pyridin-6-yl)-6-methyl-2-oxo-2,3-dihydro-1H-benzo[d]imidazol-1-yl)piperidin-1-yl)-N,N-dimethylacetamide] | 4.93 µM | 0.142 µM
CNC(=O)CN1CCC(n2c(=O)[nH]c3cc(-c4cc(OC)c5ncnn5c4)c(C)cc32)CC1 [Example 87, 2-(4-(5-(8-methoxy-[1,2,4]triazolo[1,5-a]pyridin-6-yl)-6-methyl-2-oxo-2,3-dihydro-1H-benzo[d]imidazol-1-yl)piperidin-1-yl)-N-methylacetamide] | 22.4 µM | 0.497 µM
CNC(=O)CN1CCC(n2c(=O)[nH]c3cc(-c4cc(C)c5ncnn5c4)c(C)cc32)CC1 [Example 88, N-methyl-2-(4-(6-methyl-5-(8-methyl-[1,2,4]triazolo[1,5-a]pyridin-6-yl)-2-oxo-2,3-dihydro-1H-benzo[d]imidazol-1-yl)piperidin-1-yl)acetamide] | 45.3 µM | 0.333 µM
Cc1cc2c(cc1-c1cc(C)c3ncnn3c1)[nH]c(=O)n2C1CCN(CC(=O)N(C)C)CC1 [Example 89, N,N-dimethyl-2-(4-(6-methyl-5-(8-methyl-[1,2,4]triazolo[1,5-a]pyridin-6-yl)-2-oxo-2,3-dihydro-1H-benzo[d]imidazol-1-yl)piperidin-1-yl)acetamide] | 29 µM | 0.111 µM
Cc1cc(-c2ccc3c(c2)[nH]c(=O)n3C2CCN(CC(=O)N(C)C)CC2)cn2ncnc12 [Example 90, N,N-dimethyl-2-(4-(5-(8-methyl-[1,2,4]triazolo[1,5-a]pyridin-6-yl)-2-oxo-2,3-dihydro-1H-benzo[d]imidazol-1-yl)piperidin-1-yl)acetamide] | 14.6 µM | 2.16 µM
Cc1cc2c(cc1-c1cc(C)c3ncnn3c1)[nH]c(=O)n2C1CCN(CC(=O)N(C)C)CC1 [Example 91, N,N-dimethyl-2-(4-(6-methyl-5-(8-methyl-[1,2,4]triazolo[1,5-a]pyridin-6-yl)-2-oxo-2,3-dihydro-1H-benzo[d]imidazol-1-yl)piperidin-1-yl)acetamide] | > 50 µM | > 3.13 µM
Cc1cc2c(cc1-c1cc(C)c3ncnn3c1)[nH]c(=O)n2[C@H]1CCCN(CC(N)=O)C1 [Example 92, (S)-2-(3-(6-methyl-5-(8-methyl-[1,2,4]triazolo[1,5-a]pyridin-6-yl)-2-oxo-2,3-dihydro-1H-benzo[d]imidazol-1-yl)piperidin-1-yl)acetamide] | 21.1 µM | 0.82 µM
